Test results: BindingDB's records for doi:10.1021/jm00045a017 (National Taiwan University, 1994)

Assay: binding affinity against sigma Opioid receptor was measured by using labeled ligand [3H]-SKF- 10,047 (1 nM)

Row | Compound | Ki
1 | COc1cccc2c1O[C@H]1C(=O)CC[C@H]3CN(CC4CC4)CC[C@@]231 [(4aR,7aR,12bS)-3-Cyclopropylmethyl-9-methoxy-2,3,4,4a,5,6-hexahydro-1H-8-oxa-3-aza-benzo[d]fluoren-7-one] | 0.44 µM
2 | Oc1cccc2c1O[C@H]1[C@@H](O)CC[C@H]3CN(CC4CC4)CC[C@@]231 [(4aR,7S,7aR,12bS)-3-Cyclopropylmethyl-2,3,4,4a,5,6,7,7a-octahydro-1H-8-oxa-3-aza-benzo[d]fluorene-7,9-diol] | 0.58 µM
3 | Oc1cccc2c1O[C@H]1[C@H](O)CC[C@@H]3CN(CC4CC4)CC[C@@]231 [(4aS,7R,7aR,12bS)-3-Cyclopropylmethyl-2,3,4,4a,5,6,7,7a-octahydro-1H-8-oxa-3-aza-benzo[d]fluorene-7,9-diol] | 0.3 µM
4 | O=C1CC[C@H]2CN(CC3CC3)CC[C@@]23c2cccc(O)c2O[C@@H]13 [(4aR,7aR,12bS)-3-Cyclopropylmethyl-9-hydroxy-2,3,4,4a,5,6-hexahydro-1H-8-oxa-3-aza-benzo[d]fluoren-7-one] | 0.71 µM
5 | CN1CC[C@]23c4cccc(O)c4O[C@H]2C(=O)CC[C@H]3C1 [(4aR,7aR,12bS)-9-Hydroxy-3-methyl-2,3,4,4a,5,6-hexahydro-1H-8-oxa-3-aza-benzo[d]fluoren-7-one] | 2.09 µM
6 | COc1cccc2c1O[C@H]1[C@@H](O)CC[C@H]3CN(CC4CC4)CC[C@@]231 [(4aR,7S,7aR,12bS)-3-Cyclopropylmethyl-9-methoxy-2,3,4,4a,5,6,7,7a-octahydro-1H-8-oxa-3-aza-benzo[d]fluoren-7-ol] | 0.41 µM
7 | O=C1CC[C@@H]2CN(CC3CC3)CC[C@@]23c2cccc(O)c2O[C@@H]13 [(4aS,7aR,12bS)-3-Cyclopropylmethyl-9-hydroxy-2,3,4,4a,5,6-hexahydro-1H-8-oxa-3-aza-benzo[d]fluoren-7-one] | 0.31 µM
8 | Oc1cccc2c1O[C@H]1CCC[C@H]3CN(CC4CC4)CC[C@@]231 [(-)-trans-3-Cyclopropylmethyl-2,3,4,4aalpha,5,6,7,7aalpha-octahydro-1H-benzo[4,5]furo[3,2-e]isoquinolin-9-ol] | 0.021 µM
